Measured values as given in ChEMBL document CHEMBL4837181 (Eur J Med Chem, 2020).
Each block holds one molecule with its values, some of them ahead of it.

Assays:
[1] = AUC (0 to 24 hrs) at steady state in […] at 1200 mg, BID; assay type: ADME; set-up: time < 24 hr, dose 1200 mg; conditions: in vivo
[2] = AUC (0 to 24 hrs) at steady state in mouse at 62 mg/kg administered bid; assay type: ADME, organism-based; set-up: time < 24 hr, dose 62 mg/kg; conditions: in vivo
[3] = Cmax in mouse at 250 mg/kg administered bid; assay type: ADME, organism-based; set-up: dose 250 mg/kg; conditions: in vivo
[4] = Apparent oral clearance in male cynomolgus monkey at 75 mg/kg, po measured on day 1; assay type: ADME, organism-based, Macaca fascicularis; conditions: in vivo
[5] = Average plasma concentration at steady state in mouse at 62 mg/kg administered bid; assay type: ADME, organism-based; conditions: in vivo
[6] = Stability in human plasma assessed as parent compound remaining measured after 6 hrs by LC-MS/MS analysis; assay type: ADME, cell-free; conditions: read-out: Stabilty
[7] = Volume of distribution in male cynomolgus monkey at 15 mg/kg, iv measured on day 1; assay type: ADME, organism-based, Macaca fascicularis; conditions: in vivo
[8] = Drug metabolism in Beagle dog hepatocytes assessed as unmetabolized compound at 10 uM incubated for 120 mins by UPLC-QTOF-PDA analysis; assay type: ADME, cell-based, Canis lupus familiaris, Hepatocyte; conditions: read-out: Drug metabolism
[9] = Lipophilicity, logD of compound; assay type: physicochemical; conditions: octanol/water
[10] = Chemical stability of compound in simulated gastric fluid assessed as compound remaining at 5 uM measured after 24 hrs by LC-MS/MS analysis; assay type: ADME, physicochemical; conditions: read-out: Stabilty
[11] = Chemical stability of compound in saline assessed as compound remaining at 5 uM measured after 24 hrs by LC-MS/MS analysis; assay type: physicochemical; conditions: read-out: Stabilty
[12] = target: T1, Broad substrate specificity ATP-binding cassette transporter ABCG2 (Homo sapiens, UniProt Q9UNQ0); test: Inhibition of BCRP in human Caco-2 cells; assay type: cell-based
T1 sequence (Q9UNQ0 whole entry): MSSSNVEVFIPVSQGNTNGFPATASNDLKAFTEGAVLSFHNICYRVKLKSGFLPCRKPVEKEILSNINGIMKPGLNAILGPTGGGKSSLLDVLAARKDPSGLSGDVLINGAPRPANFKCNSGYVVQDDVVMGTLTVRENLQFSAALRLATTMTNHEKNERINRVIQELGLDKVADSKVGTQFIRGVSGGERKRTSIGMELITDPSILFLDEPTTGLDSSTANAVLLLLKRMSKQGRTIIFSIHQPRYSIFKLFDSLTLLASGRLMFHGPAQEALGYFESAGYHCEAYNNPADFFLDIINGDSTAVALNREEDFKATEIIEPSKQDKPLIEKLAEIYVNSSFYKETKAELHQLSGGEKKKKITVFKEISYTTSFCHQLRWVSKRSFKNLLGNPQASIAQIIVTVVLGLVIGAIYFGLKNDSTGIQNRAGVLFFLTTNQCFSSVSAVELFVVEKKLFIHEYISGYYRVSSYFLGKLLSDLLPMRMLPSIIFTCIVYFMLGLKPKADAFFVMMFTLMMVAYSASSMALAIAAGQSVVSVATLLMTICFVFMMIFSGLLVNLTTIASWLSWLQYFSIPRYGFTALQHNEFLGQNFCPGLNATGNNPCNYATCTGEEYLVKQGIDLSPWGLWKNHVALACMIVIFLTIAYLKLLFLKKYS

[13] = Drug metabolism in cynomolgus monkey assessed as indoximod formation by measuring indoximod Tmax at 75 to 375 mg/kg, po BID; assay type: ADME, organism-based, Macaca fascicularis; conditions: in vivo, dose 75-375 mg/kg
[14] = Toxicity in rat assessed as change in behavioral parameter; conditions: in vivo
[15] = Toxicity in monkey assessed as change in behavioral parameter; set-up: species or system Macaca mulatta; conditions: rhesus monkey, in vivo
[16] = target: T2, Solute carrier organic anion transporter family member 1B1 (Homo sapiens, UniProt Q9Y6L6); test: Inhibition of OATP1B1 (unknown origin) expressed in HEK293 cells; assay type: cell-based
T2 sequence (Q9Y6L6 whole entry): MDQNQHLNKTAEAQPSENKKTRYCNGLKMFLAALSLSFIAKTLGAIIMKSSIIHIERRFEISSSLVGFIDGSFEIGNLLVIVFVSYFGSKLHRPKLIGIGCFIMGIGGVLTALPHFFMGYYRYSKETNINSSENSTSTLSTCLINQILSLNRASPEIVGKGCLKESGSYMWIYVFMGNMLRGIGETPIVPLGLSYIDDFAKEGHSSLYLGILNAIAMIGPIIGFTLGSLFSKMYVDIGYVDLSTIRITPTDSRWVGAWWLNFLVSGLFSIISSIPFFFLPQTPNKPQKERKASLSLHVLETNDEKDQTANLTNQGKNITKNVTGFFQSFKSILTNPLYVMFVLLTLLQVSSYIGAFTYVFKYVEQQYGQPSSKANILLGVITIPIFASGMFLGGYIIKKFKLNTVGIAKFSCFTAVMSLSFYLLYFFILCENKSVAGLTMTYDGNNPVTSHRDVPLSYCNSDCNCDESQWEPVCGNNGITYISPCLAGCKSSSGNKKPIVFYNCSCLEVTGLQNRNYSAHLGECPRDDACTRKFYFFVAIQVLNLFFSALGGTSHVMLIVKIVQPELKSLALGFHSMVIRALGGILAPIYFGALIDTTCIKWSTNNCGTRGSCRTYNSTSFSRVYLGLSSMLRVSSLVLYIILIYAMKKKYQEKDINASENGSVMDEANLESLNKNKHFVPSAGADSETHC

[17] = Drug metabolism in rats assessed as formation of M9 metabolite at 20 to 900 mg/kg; assay type: ADME, organism-based; conditions: rat, in vivo; dose 20-900 mg/kg
[18] = Toxicity in rat assessed as labored breathing at 150 to 180 mg/kg, po; assay type: organism-based; conditions: in vivo, dose 150-180 mg/kg
[19] = Toxicity in po dosed male rat administered twice a day; assay type: organism-based; conditions: in vivo
[20] = Tmax in female cynomolgus monkey at 150 mg/kg, po BID measured on day 8; assay type: ADME, organism-based, Macaca fascicularis; conditions: in vivo
Cytochrome P450 1A2 = target: T3, Cytochrome P450 1A2 (Homo sapiens, UniProt P05177); test: Inhibition of CYP1A2 in human hepatocytes; assay type: ADME, cell-based, Hepatocyte
T3 sequence (P05177 whole entry): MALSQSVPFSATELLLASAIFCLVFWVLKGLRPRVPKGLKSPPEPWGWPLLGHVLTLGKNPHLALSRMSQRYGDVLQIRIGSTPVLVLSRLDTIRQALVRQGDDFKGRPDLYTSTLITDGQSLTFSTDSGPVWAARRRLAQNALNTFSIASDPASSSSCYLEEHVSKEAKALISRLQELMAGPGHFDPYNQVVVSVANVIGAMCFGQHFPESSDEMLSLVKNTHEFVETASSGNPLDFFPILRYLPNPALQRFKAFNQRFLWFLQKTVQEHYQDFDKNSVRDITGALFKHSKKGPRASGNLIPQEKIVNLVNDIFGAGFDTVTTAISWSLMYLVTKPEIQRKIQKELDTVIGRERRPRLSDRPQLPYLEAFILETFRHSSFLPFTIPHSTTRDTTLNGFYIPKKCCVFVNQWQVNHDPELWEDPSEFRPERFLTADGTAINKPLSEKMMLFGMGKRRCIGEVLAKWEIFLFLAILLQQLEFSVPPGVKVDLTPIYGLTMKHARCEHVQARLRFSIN

[21] = Drug metabolism in cynomolgus monkey assessed as indoximod formation of by measuring indoximod Tmax at 15 mg/kg, iv administered as single dose; assay type: ADME, organism-based, Macaca fascicularis; conditions: in vivo
[22] = Chemical stability of compound in 0.1 N aqueous HCl buffer assessed as compound remaining at pH 1 at 5 uM measured after 1.5 hrs by LC-MS/MS analysis; assay type: physicochemical; conditions: pH 1, 1.5 h

AUC at 24 h [1]: 240 µM·h
AUC at 24 h [2]: > 170 µM·h
Cmax [3]: 50 µM
CL/F [4]: 16.2 mL/min/kg
Cave [5]: > 7 µM
Structure (SMILES): Cn1cc(C[C@@H](N)C(=O)O)c2ccccc21 [INDOXIMOD]

Structure (SMILES): CCOC(=O)[C@@H](Cc1cn(C)c2ccccc12)NC(=O)[C@@H](N)CC(C)C.Cl
remaining at 6 h [6]: 53%
Vd [7]: 309 L/kg
remaining at 2 h, 10 µM [8]: 1.1%
logD [9]: 2.3
remaining at 24 h, 5 µM [10]: 88%
remaining at 24 h, 5 µM [11]: 87%
inhibition (INH) [12]: Not Active
Tmax [13]: 1 h
Activity [14]: Non-Toxic
Activity [15]: Non-Toxic
IC50 [16]: > 50 µM
Drug metabolism [17]: Metabolite_Detected
Activity [18]: Toxic
TD10 [19]: 150 mg/kg
Tmax [20]: 1 h
IC50 (Cytochrome P450 1A2): > 50 µM
Tmax [21]: 1 h
Stabilty [22]: 90%
